Key:
protein A (albumin) [1] = target: T1, protein A (albumin) (Bos taurus, UniProt P02769); conditions: biolayer interferometry, Octet RED384; immobilized biotinylated TP4-A12I,A15I
Experimental: (§4) The biolayer interferometry were measured by an Octet RED384 instrument (ForteBio). […] Serial dilutions of serum components in 200 μl PC buffer were used as analyte. Affinity (Kd) and kinetic parameters (kon and koff) were calculated from a global fit (1:1) of the data using the Octet RED384 software[27].

[2] = target: T2, protein D (albumin and α1-antitrypsin complex) (Bos taurus, UniProt P02769+P34955); assay: Fluorescence emission spectrum (blue shift), protein D; assay type: binding, bovine; conditions: protein D 0.75 μM, PC buffer, 25 °C, 30 min; excitation 285 nm, emission 300–450 nm; reagent up to: sarkosyl 320, TP4-A12I,A15I 120, ibuprofen 24, phenytoin 20 μM
T2 construct: The active components were further purified by fast performance liquid chromatography (FPLC) Mono Q and S12 column chromatography from the 70% saturated fraction; from tissue; host or cells: fetal bovine serum (70% ammonium sulfate fraction, FPLC Mono Q and Superose 12)
T2 sequence (P02769 25-607, one chain of several): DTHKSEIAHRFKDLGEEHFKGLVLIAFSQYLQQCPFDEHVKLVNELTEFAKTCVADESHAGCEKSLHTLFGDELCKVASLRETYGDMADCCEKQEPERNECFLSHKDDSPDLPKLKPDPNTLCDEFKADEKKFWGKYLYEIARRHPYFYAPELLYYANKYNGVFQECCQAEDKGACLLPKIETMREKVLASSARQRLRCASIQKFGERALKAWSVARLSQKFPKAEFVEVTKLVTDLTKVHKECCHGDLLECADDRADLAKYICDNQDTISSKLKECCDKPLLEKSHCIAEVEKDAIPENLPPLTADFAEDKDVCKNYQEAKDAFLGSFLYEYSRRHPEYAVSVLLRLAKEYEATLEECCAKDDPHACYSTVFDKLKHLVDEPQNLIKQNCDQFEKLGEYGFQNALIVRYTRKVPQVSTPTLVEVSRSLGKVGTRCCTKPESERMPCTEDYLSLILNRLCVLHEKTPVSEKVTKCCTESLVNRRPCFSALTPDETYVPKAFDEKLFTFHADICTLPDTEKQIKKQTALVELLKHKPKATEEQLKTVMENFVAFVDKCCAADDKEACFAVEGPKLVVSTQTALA
Experimental: (§1) The mixtures were excited by 285 nm and its emission spectra were recorded between 300 and 450 nm using a temperature-controlled fluorimeter (FP8500, Jasco, Japan)[13].

[3] = target: T2, protein D (albumin and α1-antitrypsin complex); assay: Cross-linking of AMP-protein D complex and Western blotting; assay type: binding, bovine; conditions: AMP/protein D cross-linked with glutaraldehyde, PC buffer, 37 °C, 30 min; reduced SDS-PAGE, Western blotting
Experimental: Small aliquots of serum components (4 μg) in the presence/absence of AMPs (2 μg) were incubated with various concentrations of glutaraldehyde in 10 μl PC buffer at 37 °C for 30 min. […]

[4] = target: T2, protein D (albumin and α1-antitrypsin complex); assay: Inhibition of the binding of TP4-A12I,A15I to protein D (band shift competition); set-up: species or system bovine
Experimental: Reagents were added to the protein A and protein D at the indicated concentrations and excited at […] and recorded for the emission spectrum between 300 to 450 nm.
(§2) Various AMPs (4 μg each) were incubated with fetal bovine serum (FBS) components at room temperature in 10 μl PC buffer for 30 min and subjected to horizontal native 8% PAGE, pH8.0 or pH8.8, and Coomassie Blue staining.

[5] = target: T2, protein D (albumin and α1-antitrypsin complex); assay: Biolayer interferometry, protein D; assay type: binding, bovine; conditions: biotinylated TP4-A12I,A15I
Experimental: as §4

fetal bovine serum (FBS) = assay: Band shift of AMPs by fetal bovine serum; assay type: binding
Experimental: as §2

protein A (albumin) [6] = target: T1, protein A (albumin); assay: Fluorescence emission spectrum (blue shift), protein A; assay type: binding, bovine; set-up: The homogeneities of collected protein A (albumin), protein B (α1-antitrypsin), protein C (serotransferrin) and protein D complex; from tissue; host or cells: fetal bovine serum (70% ammonium sulfate fraction, FPLC Mono Q); conditions: protein A 0.75 μM, PC buffer, 25 °C, 30 min; excitation 285 nm, emission 300–450 nm; reagent up to: sarkosyl 320, TP4-A12I,A15I 120, ibuprofen 24, phenytoin 20 μM
Experimental: as §1

[7] = system: Escherichia coli K-12 (MG1655); assay: Antimicrobial (bactericidal) activity against E. coli, effect of serum or serum proteins; assay type: cell-based; conditions: FBS, PBS, 37 °C (Fig. 1d)
Experimental: The Gram-negative bacteria Escherichia coli K-12 (MG1655) was cultured and plated in/on Luria–Bertani broth/agar plate (Merck Millipore, Darmstadt, Germany). The Gram-positive Staphylococcus aureus (ATCC 6538P) was cultured and plated in tryptic soy broth/agar (BD, MD, USA). The fungus Candida albicans (ATCC 14,053) was cultured and plated in YM broth/agar (BD, MD, USA). The bacteria were grown overnight, washed, and diluted 1:2000 in phosphate buffered saline (PBS), pH 7.5 or DMEM (Life Biotech, California, USA), pH 7.4. Bacteria (ca. 1 × 10^6 colony-forming units, cfu) were mixed with antimicrobial peptides (AMP) in 100 μl PBS and incubated at 37 °C (for bacteria) and at 30 °C (for fungus). Serial dilutions of each AMP-treated bacteria in PBS/DMEM supplemented with FBS were prepared and plated for the determination of remaining viable cells (expressed as cfu). At least three independent experiments were performed for each assay to determine the average value with standard deviation. MBC was defined as the lowest AMP concentration that kills 99.9% of the original inoculum.

[8] = target: T2, protein D (albumin and α1-antitrypsin complex); assay: Band shift of AMPs by protein D; assay type: binding, bovine
[9] = target: T3, protein B (α1-antitrypsin) (Bos taurus, UniProt P34955); conditions: biolayer interferometry, Octet RED384; immobilized biotinylated TP4-A12I,A15I
T3 sequence (P34955 25-416): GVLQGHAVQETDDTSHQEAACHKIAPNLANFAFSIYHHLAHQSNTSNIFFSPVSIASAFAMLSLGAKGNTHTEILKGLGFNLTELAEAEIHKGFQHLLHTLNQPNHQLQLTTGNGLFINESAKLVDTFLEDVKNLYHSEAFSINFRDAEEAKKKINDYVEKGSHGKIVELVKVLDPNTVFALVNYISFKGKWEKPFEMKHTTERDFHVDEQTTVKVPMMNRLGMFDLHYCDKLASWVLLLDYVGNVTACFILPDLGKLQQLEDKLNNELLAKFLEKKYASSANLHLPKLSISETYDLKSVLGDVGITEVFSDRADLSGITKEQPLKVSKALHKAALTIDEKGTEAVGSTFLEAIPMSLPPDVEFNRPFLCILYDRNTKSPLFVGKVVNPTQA
Experimental: as §4

protein A/D mixture = assay: FPLC S12 gel filtration of proteins A/D mixture with TP4-A12I,A15I; assay type: binding, bovine; conditions: reduced SDS-PAGE of eluates
From the text: To further investigate the differential binding of AMP to protein A and protein D, the TP4-A12I,A15I and protein A/D was mixed and subjected to gel filtration chromatography (FPLC S12). There was a front shoulder on the elution profile (Fig. 3g).

protein A (albumin) [10] = target: T1, protein A (albumin); assay: Pulling down of protein A by immobilized biotinylated TP4-A12I,A15I; assay type: binding, bovine; set-up: The homogeneities of collected protein A (albumin), protein B (α1-antitrypsin), protein C (serotransferrin) and protein D complex; from tissue; host or cells: fetal bovine serum (70% ammonium sulfate fraction, FPLC Mono Q); conditions: biotinylated peptide on Streptavidin-conjugated beads; PC buffer, room temperature, 30 min
Experimental: (§3) Streptavidin-conjugated beads were incubated with 10 μg of biotinylated TP4-A12I,A15I peptides in 600 μl PC buffer for one hour on a rolling wheel. The immobilized biotinylated AMPs were further mixed with serum components in the indicated 600 μl buffer(s) at room temperature for 30 min on a rolling wheel, then washed twice with 600 μl respective buffer and subjected to SDS-PAGE and Coomassie Blue staining. Specific proteins were excised from SDS-PAGE gel and subjected to in-gel trypsin digestion and liquid chromatography-tandem mass spectrometry.

[11] = target: T2, protein D (albumin and α1-antitrypsin complex); assay: Pulling down of protein D by immobilized biotinylated TP4-A12I,A15I; assay type: binding, bovine
Experimental: as §3

crude bovine serum = assay: Pulling down of proteins from crude bovine serum by biotinylated TP4-A12I,A15I; assay type: binding
Experimental: as §3

serum protein = conditions: cited from earlier work
Experimental: Albumin is the most abundant protein in human serum (HSA, 45 mg/ml), followed in descending order by α1-antitrypsin (A1AT, 3.5 mg/ml), transferrin (2.5 mg/ml), α2-macroglobulin (2.5 mg/ml), haptoglobulin (1.8 mg/ml), low-density lipoprotein (LDL, 1.2 mg/ml), α1-acid glycoprotein (AGP, 0.8 mg/ml) and high-density lipoprotein (HDL, 0.6 mg/ml)[11]. These proteins are involved in the transportation of fatty acids, cholesterols, toxins and drugs in the blood stream.

T1 sequence (P02769 25-607): as the sequence (P02769 25-607, one chain of several) above

CC[C@H](C)[C@H](NC(=O)[C@H](CO)NC(=O)[C@H](Cc1ccccc1)NC(=O)[C@H](CC(C)C)NC(=O)CNC(=O)CNC(=O)[C@@H](NC(=O)[C@@H](NC(=O)[C@H](Cc1c[nH]cn1)NC(=O)[C@H](Cc1c[nH]cn1)NC(=O)[C@@H](NC(=O)[C@@H](N)Cc1ccccc1)[C@@H](C)CC)[C@@H](C)CC)[C@@H](C)CC)C(=O)NCC(=O)N[C@@H](CCCCN)C(=O)N[C@H](C(=O)N[C@H](C(=O)N[C@@H](Cc1c[nH]cn1)C(=O)N[C@@H](CCCNC(=N)N)C(=O)N[C@@H](CC(C)C)C(=O)N[C@H](C(=O)N[C@@H](CCCNC(=N)N)C(=O)N[C@@H](CCCNC(=N)N)C(=O)N[C@@H](CCCNC(=N)N)C(=O)N[C@@H](CCCNC(=N)N)C(=O)N[C@@H](CCCNC(=N)N)C(=O)O)[C@@H](C)CC)[C@@H](C)CC)[C@@H](C)CC [TP4-A12I,A15I]
Kd (protein A) (protein A (albumin) [1]): not detectable
blue shift of fluorescence emission spectrum, protein D [2]: blue shift of fluorescence emission spectrum of protein D was observed
association with proteins after cross-linking [3]: associated with protein A, protein B as well as monomeric and dimeric protein D
proposed binding site in protein D ([4]; inferred from competition and fluorescence): probably at the drug-binding site II of albumin in the protein D complex
reversibility and potency of binding of protein D [5]: potent and reversible binding
location of TP4-A12I,A15I-binding components after ammonium sulfate fractionation (band shift) (fetal bovine serum (FBS); 30%, 50%, 70% and 90% saturation, band shift): mainly located at the 70% ammonia sulfate saturation fraction
FBS-mediated band shift of TP4 mutants (fetal bovine serum (FBS); AMP 4 μg with FBS, 10 μl PC buffer, room temperature, 30 min, horizontal native 8% PAGE, pH8.0): enhanced the shift
blue shift of fluorescence emission spectrum, protein A (protein A (albumin) [6]): did not cause blue shift
susceptibility of bactericidal activity to serum's inhibition (E. coli), relative to TP4 [7]: more susceptible to serum’s inhibition
change of binding ability to protein D by mutation of TP4 ([8]; band shift, Supplementary Fig. 3b, TP4 mutants 4 μg, 8% horizontal native PAGE): increased the binding ability
binding to protein D (band shift, Fig. 7b) ([8]; protein A and D mixture (20 μg each), TP4-A12I,A15I 4 μg, 37 °C, 30 min, native PAGE, pH8.8): only protein D, but not protein A, was bound
AMP-binding ability of protein D reduced by β-ME (band shift) ([8]; protein D reduced by β-ME, band shift (Fig. 4e)): destroyed
Kd (protein B) [9]: not detectable
co-elution with albumin in gel filtration (protein A/D mixture): co-eluted with albumin only at the front shoulder fractions
binding to protein A (pulling down) (protein A (albumin) [10]): not by protein A
binding of protein D in the presence of SDS (dimerization inhibited) ([11]; 2 × SDS, equivalent to 0.125% SDS (w/v), pulling down, 15% non-reducing SDS-PAGE): unable to bind
protein retained on immobilized TP4-A12I,A15I after β-ME wash ([11]; pulled-down protein D dissociated by β-ME (1X = 0.25%), 8% reduced SDS-PAGE): only protein B was still tightly associated
binding of protein D constituents after dissociation by β-ME ([11]; β-ME 0.1–0.4%, pulling down (Fig. 4f)): some protein D constituents were able to bind
location of TP4-A12I,A15I-binding components after ammonium sulfate fractionation (pulling down) (crude bovine serum; 30%, 50%, 70% and 90% saturation, pulling down): mainly located at the 70% ammonia sulfate saturation fraction
proteins pulled down from crude serum (major band) (crude bovine serum; biotinylated TP4-A12I,A15I on Streptavidin-conjugated beads, SDS-PAGE, LC/MS/MS, major band): major band consisted of albumin and α1-antitrypsin
proteins pulled down from crude serum (minor band) (crude bovine serum; biotinylated TP4-A12I,A15I on Streptavidin-conjugated beads, SDS-PAGE, LC/MS/MS, minor band): minor band was identified to be apolipoprotein AI (Apo-AI)

O=C1NC(=O)C(c2ccccc2)(c2ccccc2)N1 [phenytoin]
blue shift of fluorescence emission spectrum, protein D [2]: no blue shift was seen
bound to serum protein (serum protein): 90%
inhibition of binding of TP4-A12I,A15I to protein D ([4]; protein A and D mixture (20 μg each) pre-incubated with drug 30 min, then TP4-A12I,A15I (4 μg) at 37 °C, 30 min, native PAGE, pH8.8): not
blue shift of fluorescence emission spectrum, protein A (protein A (albumin) [6]): no blue shift was seen

From article PMC7809101, “Fetal bovine serum albumin inhibits antimicrobial peptide activity and binds drug only in complex with α1-antitrypsin” (Scientific Reports, 2021)
